Data from patent US20040208866A1, “Methods of regulating body weight” (priority 2002, published 2004).

How the values were obtained:
[1] = tested on: antral portion of the stomach; test: Gastrointestinal contractility: distance between transducing crystals on the antral stomach; type: in vivo, Sprague-Dawley rats
From the text: Two male Sprague-Dawley rats, approximately 12 weeks old (Harlan, Indianapolis, Ind.) were anesthetized with urethane and their stomachs were exposed through a small abdominal incision. Two 2.4 mm transducing crystals (Sonometrics, Ontario, Canada) were placed on the antral portion of the stomach such that circular contractions could be monitored as a change in the distance between the two crystals. The crystals were attached with VETBOND TISSUE ADHESIVE (3M, St. Paul, Minn.). […] The amplitude of the NE-induced decrease was approximately 50% of the acetylcholine-induced increase in distance. Both responses were transient. A negative control of […] of phosphate buffer solution (PBS) applied topically between the crystals had no effect. A 14 amino acid zsig33 peptide (zsig33-1, as shown in Example 4) was dissolved in PBS and […] was applied topically for a final concentration of 1 μg, 10 μg or 100 μg.

Balb C male mice = test: Binding studies of FITC-labelled zsig33 peptides in situ after tail vein injection; type: in vivo; conditions: FITC-labelled peptide, 0.5 mg per mouse by tail vein, 15 minutes circulation, fluorescent microscopy at 495 nm
Description: Ten week old Balb C male mice were anesthetized via intramuscular injection and tested for binding of zsig33 peptides in vivo.
Two peptides were tested: the first peptide, zsig33-1, (See Example 4) consisted of residues 24 to 37 of SEQ ID NO:2, and the second peptide, zsig33-2, consisted of residues 24 to 41 of SEQ ID NO:2. A single glycine was used as a negative control. Additionally, a “scrambled” negative control consisting of residues the first peptide which had been rearranged (SEQ ID NO:15) was also tested. The peptides and controls were coupled to fluorescein isothiocyantate (FITC, Molecular Probes, Eugene, Oreg.) in the following manner: The peptides, glycine control and FITC were dissolved in 0.1 M sodium bicarbonate at pH 9.0 to a concentration of 2.0 mg/ml for the peptides and glycine control and 5 mg/ml for FITC, avoiding exposure of the FITC to strong light. […] The buffer was changed daily and unbound FITC in the post-dialyzed buffer was measured by HPLC. […] Peptide- or glycine-bound FITC was determined by measuring the absorbance of the dialyzed FITC-bound material at 498 nm and dividing by the extinction coefficient of fluorescein, […]. The molar ratio of fluorescein to peptide (mole FITC/mole peptide) was then determined. […]

ob/ob mice [2] = test: Glucose absorption after oral glucose challenge; type: in vivo; conditions: 100 μg by oral gavage 30 minutes prior to oral glucose challenge, female ob/ob mice
Description: Eight female ob/ob mice, approximately 6 weeks old (Jackson Labs, Bar Harbor, Me.) were adapted to a 4 hour daily feeding schedule for two weeks. After two weeks on the feeding schedule, the mice were given 100 μg of a zsig33 peptide (zsig33-1, as shown in Example 4) in 100 μl sterile 0.1% BSA by oral gavage, immediately after their eating period (post-prandially). Thirty minutes later, the mice were challenged orally with a 0.5 ml volume of 25% glucose. Retroorbital bleeds were done to determine serum glucose levels. Blood was drawn prior to zsig33 dosing, prior to oral glucose challenge, and at 1, 2, 4, and 20 hours following the glucose challenge.

ob/ob mice [3] = test: Body weight, food intake and glucose clearance, 14-day oral dosing; type: in vivo; conditions: 1 μg/mouse orally twice daily for fourteen days, versus scrambled peptide
Description: Sixteen female ob/ob mice, 8 weeks old, (Jackson Labs, Bar Harbor, Me.) were adapted to a special 4 hour daily feeding schedule for two weeks. The were fed ad libitum from 7:30-11:30 am daily. After two weeks on the feeding schedule, the mice were divided into two groups of 8. One group was given 1.0 μg/mouse of zsig33-1 (14 amino acid peptide) and the other vehicle (a 14 amino acid scrambled sequence peptide) in […] sterile 0.1% BSQA by oral gavage just prior to receiving food, and at the end of the 4 hour feeding period. The mice were […] twice daily for fourteen days, during which time food intake and body weight was measured daily. On day 14, immediately after the second oral gavage of the zsig33-1 peptide, the mice were challenged orally with an 0.5 ml volume of 25% glucose. Retro-orbital bleeds were done to determine serum glucose levels immediately prior to administration of the zsig33-1 peptide or vehicle ([…].), and also at 0, 1, 2, and 4 hours following the glucose challenge.

[4] = tested on: stomachs of fasted male Sprague-Dawley rats; test: Gastric emptying: transit of phenol red through the stomach; type: in vivo; conditions: 1 μg applied topically to the stomach 5 minutes after gavage, read 30 minutes after the gavage
Description: The effect of topically applied zsig33 peptide (amino acid 24 to 37 of SEQ ID NO: 2) on the transit of phenol red through the stomachs of fasted male Sprague-Dawley rats (Harlan, Indianapolis, Ind.) was evaluated. The rats (6 animals, 8 weeks old) were fasted 24 hrs prior to being anesthetized with urethane (0.5 ml/100 grams of 25% solution). After anesthetizing, the animals were orally gavaged with 1 ml of Phenol Red solution (50 μg/ml in 2% methylcellulose solution).
The stomach of each animal was exposed through a small abdominal incision and either 1 μg zsig33 peptide or a 14 amino acid control of a scrambled sequence peptide was applied topically to the stomach five minutes following the gavage. The amount of Phenol Red remaining in the stomach was determined by measuring optical density of the extracted stomach contents 30 minutes after the gavage.

Row | Compound | change in crystal distance ([1]; 1 μg peptide in PBS applied topically) | rate and amplitude of the contractions ([1]; 10 μg and 100 μg applied topically, compared with 1 μg) | fluorescence in duodenum, jejunum and kidney compared to the glycine and scrambled controls (Balb C male mice) | post-prandial glucose absorption (serum glucose) (ob/ob mice [2]) | daily body weight (ob/ob mice [3]) | daily food intake (ob/ob mice [3]) | reduction of the amount of Phenol Red remaining in the stomach compared to a scrambled peptide [4] | amplitude of the NE-induced decrease relative to the acetylcholine-induced increase in distance ([1]; 10 ml of 1 mM applied topically) | change in distance between the two crystals ([1]; 10 ml of 1 mM applied topically to the stomach, anesthetized rats)
1 | zsig33-1: 14 amino acid peptide corresponding to residue 24 (Gly) to residue 37 (Gln) of SEQ ID NO:2 (GSSFLSPEHQRVQQ; listed as Homo sapiens) | sustained, rhythmic increase and decrease in crystal distance | enhanced responses in both rate and amplitude | increased fluorescence in duodenum, jejunum and in the collecting ducts and convoluted tubules of the kidney | enhanced post-prandial glucose absorption | no affect | no affect | approximately 25% |  | 
2 | zsig33-2: peptide consisting of residues 24 to 41 of SEQ ID NO:2 (GSSFLSPEHQRVQQRKES; listed as Homo sapiens) |  |  | increased fluorescence in duodenum, jejunum and in the collecting ducts and convoluted tubules of the kidney |  |  |  |  |  | 
3 | NC[C@H](O)c1ccc(O)c(O)c1 [norepinephrine, reference compound] |  |  |  |  |  |  |  | approximately 50% | reduction in the distance between the two crystals
